The results in this text go back to patent publication US12404345B2, “Humanized antibodies against iRHOM2” (SCIRHOM GMBH, priority 2021, dated 2025).

The test system of assay [1] is PMA-induced release of endogenous TGFα from human PC3 prostate cancer cells. Description: ELISA-based TGFα release assay, PMA-induced, PC3 cells. Format: cell-based. Conditions: PC-3, Batimastat 10 μM, PMA 25 ng/ml, 2 hours. As to the method: In the following study, ELISA-based TGFα release assays were performed to analyze the inhibitory effects of the antibodies of the invention on PMA-induced release of endogenous TGFα from human PC3 prostate cancer cells.
In brief, on day 1, Nunc black MaxiSorp® 96-well plates (Thermo Fisher Scientific, USA) were coated overnight with 100 μl per well of goat anti-human TGFα capture antibody (provided as part of the DuoSet ELISA kit) at 0.4 μg/ml TBS at 4° C. 80,000 PC3 (European Collection of Authenticated Cell Cultures, UK) cells in 100 μl of normal growth medium were seeded in each well of F-bottom 96-well cell culture plates (Corning, USA) and incubated at 37° C., 5% CO2 overnight. On day 2, the capture antibody solution was removed and MaxiSorp® plates were blocked with 300 μl per well of TBS, 1% BSA at room temperature for 1-2 hours. […] Using an infinite M1000 (Tecan Group, Switzerland) microplate reader, the fluorescence of each well was collected at an excitation wavelength of 435 nm and an emission wavelength of 555 nm.
In general terms: ELISA stands for enzyme-linked immunosorbent assay.

For assay [2], the target named is T1, human iRhom2 variant hiR2-FL-K536A-T7 (Homo sapiens, UniProt Q6PJF5, K536A).
T1 construct: expressed in transfected cells; host or cells: immortalized iRhom1/2-/- DKO mouse embryonic fibroblasts, pMSCV retroviral infection
T1 sequence (Q6PJF5 1-856 K536A): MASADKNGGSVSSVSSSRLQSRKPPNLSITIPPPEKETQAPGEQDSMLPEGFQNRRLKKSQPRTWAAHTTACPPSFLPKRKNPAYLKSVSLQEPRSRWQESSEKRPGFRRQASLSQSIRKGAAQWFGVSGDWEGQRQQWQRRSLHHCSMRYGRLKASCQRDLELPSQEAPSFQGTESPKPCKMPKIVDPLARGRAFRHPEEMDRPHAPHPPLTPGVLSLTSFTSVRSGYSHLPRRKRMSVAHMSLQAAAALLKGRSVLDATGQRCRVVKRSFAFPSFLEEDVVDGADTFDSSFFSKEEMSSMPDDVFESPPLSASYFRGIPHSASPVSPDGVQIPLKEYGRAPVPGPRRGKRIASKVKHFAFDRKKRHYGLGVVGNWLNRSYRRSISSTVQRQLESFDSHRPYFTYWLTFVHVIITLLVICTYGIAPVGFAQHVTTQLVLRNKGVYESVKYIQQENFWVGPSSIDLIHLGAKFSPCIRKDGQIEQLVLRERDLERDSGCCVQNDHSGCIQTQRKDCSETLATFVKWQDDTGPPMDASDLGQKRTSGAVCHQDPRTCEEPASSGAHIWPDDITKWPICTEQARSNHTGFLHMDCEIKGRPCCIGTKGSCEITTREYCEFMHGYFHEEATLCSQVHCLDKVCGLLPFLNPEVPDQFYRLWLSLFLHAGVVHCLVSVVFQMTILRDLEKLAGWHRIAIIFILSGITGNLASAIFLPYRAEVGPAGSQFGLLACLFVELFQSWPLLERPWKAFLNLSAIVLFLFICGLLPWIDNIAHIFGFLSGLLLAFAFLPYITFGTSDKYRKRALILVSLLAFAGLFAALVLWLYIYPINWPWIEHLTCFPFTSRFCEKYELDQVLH
Description: FACS epitope mapping on MEF-DKO-hiR2-FL-K536A-T7 cells. Format: binding. Conditions: antibody at 3 μg/ml, compared with MEF-DKO-hiR2-FL-WT-T7 cells. From the text: This example describes the generation of iRhom1/2−/− DKO MEF populations expressing the 137 single amino acid substitution or deletion variants as well as their characterization in terms of cell surface localization and functional activity as indicators of proper protein conformation. Subsequently, binding analyses of the humanized antibodies 16-B-03, 16-B-05, 16-B-07, 23-B-04, 42-B-02 and 42-B-04 of the invention on the entire panel of 137 engineered MEF populations expressing human iRhom2 variants with single amino acid substitutions or deletions are described.
In brief, on day 1, Phoenix-ECO cells (American Type Culture Collection, USA) were seeded on 6-well tissue culture plates (Greiner, Germany) in standard growth medium at 8×10^5 cells per well and kept overnight at 37° C., 5% CO2. On day 2, the medium was replaced by fresh medium supplemented with chloroquine (Sigma-Aldrich, USA) at a final concentration of 25 μM. […]

Take `CNC(=O)[C@H](Cc1ccccc1)NC(=O)[C@H](CC(C)C)[C@H](CSc1cccs1)C(=O)NO` [Batimastat]: testing at 10 µM in assay [1] gave an inhibition of 90.7%.

B1: 42-B-02: humanized antibody binding human iRhom2; HCVD SEQ ID NO 33, LCVD SEQ ID NO 37 (antibody, V domains shown)
VH: QVTLRESGPALVKPTQTLTLTCTFSGFSLSTFGRGVGWIRQPPGKALEWLAHIWWDDEKYYNSALKSRLTISKDTSKNQVVLTITNMDPVDTATYYCARIQNYGSNYWYFDVWGQGTLVTVSS
VL: AIQLTQSPSSLSASVGDRVTITCRASSRISYMFWYQQKPGKAPKVLIYDTSNLASGVPSRFSGSGSGTDYTLTISSLQPEDFATYYCQQWNSYPLTFGQGTKLEIK
modifications: antibody sequences
Consider B1, for which the “effect of substitution of lysine 536 of human iRhom2 by alanine on antibody binding (MEF-DKO-hiR2-FL-K536A-T7 cells)” value in assay [2] is given as “strongly impairs”.
